Data: publication PMC7730513, “A Topical Formulation of Melatoninergic Compounds Exerts Strong Hypotensive and Neuroprotective Effects in a Rat Model of Hypertensive Glaucoma” (International Journal of Molecular Sciences, 2020)
pKi: −log10 of the molar value. “And” between values parts separate entries of the source, which are not always exact repeats. Equal entries are not always repeated. “Also recorded” adds a separate entry of the source. Where two headings read alike, the source gives them in different places.

Legend:
MT1 melatonin receptor = conditions: read-out: Affinity of MT1 melatonin receptor; cited from earlier work
MT2 melatonin receptor = conditions: read-out: Affinity of MT2 melatonin receptor; cited from earlier work
[1] = Pharmacokinetics study: eye tissue distribution of melatonin/agomelatine eye drops by HPLC/MS/MS in healthy rats; conditions: for concentration at 2 h: rat, topical, 40 µg
Protocol: (§4) Two hours after the last treatment, animals were euthanized with an overdose of pentobarbital and the eye globes removed. One eye of each rat was taken whole, while the fellow eyes were dissected, and retinas and vitreous humors were separately taken. Whole eyes were cut in small pieces and separately homogenized with an Ultra-turrax homogenizer for 3 min on ice at 4 °C in 0.25 mL of methanol, then subjected to 1 min of ultrasonication in a cold-water bath. The five retinas were pooled together and extracted as before in 0.1 mL of methanol. Each vitreous body was diluted with 0.05 mL of methanol and sonicated. All samples were finally centrifuged 10 min at 10,000× g rpm and the supernatants were saved frozen for further analysis. […] The operational MS parameters of the instrument were: gas temperature, 350 °C; gas flow, 5 L/min; nebulizer, 20 psi; capillary, 3500 V; collision energy, 15 V; dwell-time, 200 msec; fragmentor, 135 V.

[2] = test system: MCE rat model of hypertensive glaucoma; assay: Photopic full-field ERG, photopic negative response (PhNR); type: in vivo; conditions: two weeks after MCE; versus respective vehicle
Protocol: (§1) The model was originally developed in rabbits and then applied to rodents. It is based on the injection of 2% MCE in sterile saline in the anterior chamber of the eye. The MCE used in the present study (M0512; Sigma Aldrich, St. Louis, MO, USA) is pure and has a molecular weight of about 88,000 and, when dissolved in aqueous solution at 2% gives a solution with a viscosity ranging from 3500 to 5600 cps. Rats, anesthetized with an intraperitoneal injection of pentobarbital (30 mg/kg), were injected into the anterior chamber with 15 µL of MCE in both eyes using a 18G needle in agreement with published protocols. […] The eyes of each rat were evaluated for unintended adverse effects of intraocular injection -e.g., cataract, corneal opacity or edema that could impact electrophysiological parameters and/or tonometer accuracy.
(§2) Eye drops (10 µL) were administered to both eyes two times a day over two weeks after MCE injection. Eye drops were instilled at 10 a.m. and at 6 p.m.

[3] = test system: MCE rat model of hypertensive glaucoma; assay: Pattern ERG (PERG); type: in vivo; conditions: two weeks after MCE
Protocol: as §1, §2
PERG responses, mainly generated by RGC activity, can be useful for assessing RGC function in conditions such as glaucoma and ischemic optic neuropathy. PERG responses were evoked using an alternating pattern of black and white horizontal bars delivered on a stimulus display unit from a commercially available PERG system (SB700 Advanced, Nikon-Europe, Amsterdam, The Netherlands). Stimuli consisted in 0.05 cycles/deg black and white bars reversing at 1 Hz presented at 98% contrast. The pattern stimuli were administered through a light emitting diode display with a mean luminance of 50 cd/m^2 aligned at about 20 cm from the corneal surface. A total of 200 signals were averaged. Each animal was placed at the same fixed position in front of the monitor to prevent recording variability due to animal placement. PERG recordings were sequentially conducted in both eyes. The PERG response was evaluated by measuring the amplitude of the N35-P50 wave (from the trough of the negative peak N35, a small deflection near 35 ms after the stimulus, to the peak of the positive peak P50, a deflection near 50 ms after the stimulus) and the P50-N95 wave (from the peak of the positive peak P50 to the trough of the negative peak N95, a deflection near 95 ms after the stimulus). The implicit time was determined by measuring the time from the onset of the stimulus to the P50 and N95 peaks.

Iba1 = assay: Western blot of retinal homogenates, Iba1; type: in vivo, rat; conditions: retina, MCE model, versus respective vehicle
Protocol: as §1, with “accuracy. […]” for “accuracy.”
(§3) After animal euthanization with an overdose of pentobarbital, retinas were isolated and stored at −80 °C. […] Protein concentration was measured using the Micro BCA Protein Assay (Thermo Fisher Scientific, Waltham, MA, USA). […] Blots were blocked for 1 h with 5% skim milk and incubated overnight at 4 °C with the primary antibodies listed in Supplementary Table S1 that are routinely used to detect the inflammatory and the apoptotic markers as determined in the present study. β-actin was used as loading control. […]

GFAP = assay: Western blot of retinal homogenates, GFAP; type: in vivo, rat; conditions: retina, MCE model, versus respective vehicle
Protocol: as §1, with “accuracy. […]” for “accuracy.”
as §3

TNF-α = assay: Western blot of retinal homogenates, TNF-α; type: in vivo, rat; conditions: retina, MCE model, versus respective vehicle
Protocol: as §1, with “accuracy. […]” for “accuracy.”
as §3

IL-1β = assay: Western blot of retinal homogenates, IL-1β; type: in vivo, rat; conditions: retina, MCE model, versus respective vehicle
Protocol: as §1, with “accuracy. […]” for “accuracy.”
as §3

IL-6 = assay: Western blot of retinal homogenates, IL-6; type: in vivo, rat; conditions: retina, MCE model, versus respective vehicle
Protocol: as §1, with “accuracy. […]” for “accuracy.”
as §3

IL-4 = assay: Western blot of retinal homogenates, IL-4; type: in vivo, rat; conditions: retina, MCE model, versus respective vehicle
Protocol: as §1, with “accuracy. […]” for “accuracy.”
as §3

IL-10 = assay: Western blot of retinal homogenates, IL-10; type: in vivo, rat; conditions: retina, MCE model, versus respective vehicle
Protocol: as §1, with “accuracy. […]” for “accuracy.”
as §3

Bax/Bcl-2 = assay: Western blot of retinal homogenates, Bax/Bcl-2 ratio; type: in vivo, rat; conditions: retina, MCE model, versus respective vehicle
Protocol: as §1, with “accuracy. […]” for “accuracy.”
as §3

active caspase 3 = assay: Western blot of retinal homogenates, active caspase 3; type: in vivo, rat; conditions: retina, MCE model, versus respective vehicle
Protocol: as §1, with “accuracy. […]” for “accuracy.”
as §3

Brn3a-positive RGCs = assay: RGC density by Brn3a immunohistochemistry in retinal flat mounts; type: in vivo, rat; conditions: for RGC loss spared: MCE reduced RGC density by about 29%; for RGC density (% of control), Central: central retina; for RGC density (% of control), Central / RGC density (% of control), Middle / RGC density (% of control), Peripheral: MCE + treatment, mean ± SEM, n = 6; for RGC density (% of control), Middle: middle retina; for RGC density (% of control), Peripheral: peripheral retina
Protocol: as §1, §2
After animal euthanization with an overdose of pentobarbital, six retinas from independent rats for each experimental group were explanted. Retinas were then fixed for 90 min at 4 °C in 4% paraformaldehyde in 0.1 M phosphate buffer (PB) and stored at 4 °C in 25% sucrose in 0.1 M PB. Retinal ganglion cells were labeled incubating the retinas for 24 h at 4 °C with a mouse monoclonal antibody against Brn3a (1:100 in PB containing 5% BSA and 2% TritonX-100; sc-8429; Santa Cruz Biotechnology, Santa Cruz, CA, USA). Retina whole mounts were then washed with PB and incubated overnight at 4 °C in an AlexaFluor555-conjugated secondary antibody (1:100; A-32727; Molecular Probes, Eugene, OR, USA). Finally, retinas were washed with PB, mounted on glass slides with the photoreceptor side facing down and viewed with a fluorescence microscope (Ni-E; Nikon-Europe, Amsterdam, The Netherlands). Images of the entire retina were acquired by a DS-Fi1c camera (Nikon-Europe) and Brn3a-positive cells were counted using the NIS-Elements software (Nikon-Europe). […] In total, 12 images were taken from each retina. The density of Brn3a-positive cells (number of cells per mm^2) was compared between the different experimental groups. Quantification was performed in a masked manner.

[4] = after administration of 0.1% eye drops; cited from earlier work
[5] = brimonidine eye drops in monkeys; cited from earlier work
[6] = Sprague-Dawley, rat, in vivo, 2 h
Protocol: as §4

in vivo = conditions: rat
Protocol: as §4

[7] = test system: MCE rat model of hypertensive glaucoma; assay: IOP measurement by tonometry in the MCE model; type: in vivo; conditions: after two weeks of eye drops twice a day; in respect to the respective vehicle (vehicle 1 saline for timolol, brimonidine; vehicle 2 nanomicellar for melatonin/agomelatine)
Protocol: as §1, §2

[8] = of 120 µg given in 3 administrations of 40 µg

Row | SMILES | pKi (MT2 melatonin receptor) | PhNR amplitude [2] | Amplitude of the N35-P50 and P50-N95 waves, effect versus vehicle [3] | MCE-induced increase in the implicit time of the P50 and N95 components [3] | Reduction of Iba1 levels (Iba1) | Reduction of GFAP levels (GFAP) | Reduction of TNF-α levels (TNF-α) | Reduction of IL-1β levels (IL-1β) | Reduction of IL-6 levels (IL-6) | Increase of IL-4 levels (IL-4) | Increase of IL-10 levels (IL-10) | Reduction of the Bax/Bcl-2 ratio (Bax/Bcl-2) | Decrease of the levels of the active form of caspase 3 (active caspase 3) | RGC loss spared (Brn3a-positive RGCs) | RGC density (% of control), Central (Brn3a-positive RGCs) | RGC density (% of control), Middle (Brn3a-positive RGCs) | RGC density (% of control), Peripheral (Brn3a-positive RGCs) | also measured
1 | COc1ccc2cccc(CCNC(C)=O)c2c1 [agomelatine] | 9.92 | – | – | – | – | – | – | – | – | – | – | – | – | – | – | – | – | pKi (MT1 melatonin receptor): 11.00; concentration at 2 h ([1]; Sprague-Dawley, retina, Concentration in the retina (molar), converted from ng/mg): ~378 nM; concentration at 2 h ([1]; Sprague-Dawley, retina, Concentration, pool of retinas, pool of retinas of animals 1 to 5, 3 x 40 µg eye drops, 2 h after last instillation): 96 ng/g; concentration at 2 h ([1]; Sprague-Dawley, vitreous humor, Concentration, vitreous, individual animals 1-5, 3 x 40 µg eye drops, 2 h after last instillation): 71 ng/g; concentration at 2 h ([1]; Sprague-Dawley, vitreous humor, Concentration, vitreous, mean, mean of 5 animals, 3 x 40 µg eye drops, 2 h after last instillation): 80 ng/g; concentration at 2 h ([1]; Sprague-Dawley, whole eye, Concentration, whole eye, individual animals 1-5, 3 x 40 µg as 10 µL eye drops 2 h apart, sampled 2 h after last instillation): 10900 ng/g; concentration at 2 h ([1]; Sprague-Dawley, whole eye, Concentration, whole eye, mean, mean of 5 animals, 3 x 40 µg eye drops, 2 h after last instillation): 9940 ng/g; Content in the whole eye relative to melatonin ([1]; agomelatine 9.94 ng/mg vs melatonin 7.44 ng/mg): 1.33 times; Concentration, whole eye ([1]; individual animals 1-5, 3 x 40 µg as 10 µL eye drops 2 h apart, sampled 2 h after last instillation): 10.64 ng/mg and 11.35 ng/mg and 9.16 ng/mg and 7.67 ng/mg; Concentration, vitreous ([1]; individual animals 1-5, 3 x 40 µg eye drops, 2 h after last instillation): 0.073 ng/mg and 0.099 ng/mg and 0.077 ng/mg and 0.084 ng/mg; Concentration, vitreous, mean ([1]; mean of 5 animals, 3 x 40 µg eye drops, 2 h after last instillation): 0.081 ng/mg; Amount retained in the whole eye [1, 8]: 1.59 µg; Fraction of the 120 µg given retained in the whole eye [1, 8]: ~1.3%; concentration at 2 h ([1]; retina, Concentration in the retina (molar), converted from ng/mg): 378 nM; concentration at 2 h ([1]; vitreous humor, Concentration in the vitreous humor (molar), converted from ng/mg): 332 nM; Retina concentration relative to melatonin ([1]; retina): twenty-two times higher
2 | Brc1c(NC2=NCCN2)ccc2nccnc12 [brimonidine] | – | almost restoring the PhNR amplitude to control levels | partly prevented the reduction | prevented | not affecting | about 1.6 fold | did not affect | did not affect | did not affect | did not affect | did not affect | ~9.7 fold | ~2.2 fold | spared almost completely; also recorded: almost completely prevented | 88 ± 3 % of control | 91 ± 6 % of control | 91 ± 3 % of control | Amplitude of the P50-N95 wave, lower than in controls ([3]; MCE alone about 55% reduced): ~25%; Amplitude of the N35-P50 wave, lower than in controls ([3]; MCE alone about 60% reduced): about 24%; Vitreous concentration [4]: 2 nM; Concentration values after eye drops [5]: around 80 nM
3 | COc1ccc2[nH]cc(CCNC(C)=O)c2c1 [melatonin] | 9.42 | – | – | – | – | – | – | – | – | – | – | – | – | – | – | – | – | Fraction of the 120 µg given retained in the whole eye [6]: roughly 1%; concentration at 2 h (in vivo; Sprague-Dawley, Concentration in the retina (molar)): ~17 nM; concentration at 2 h (in vivo; Concentration in the retina (molar)): 17 nM; concentration at 2 h (in vivo; Concentration in the vitreous humor (molar)): 43 nM
4 | CC(C)(C)NC[C@H](O)COc1nsnc1N1CCOCC1 [timolol] | – | did not differ | did not differ | did not affect | did not affect | did not affect | did not affect | did not affect | did not affect | did not affect | did not affect | about 1.6 fold | about 1.3 fold | about 11% | 78 ± 4 *^,§ % of control | 83 ± 3 *^,§ % of control | 81 ± 4 *^,§ % of control | Reduction of the MCE-induced increase in IOP [7]: about 32%
